Results reported in patent publication EP3463364B1, “PYRAZINE DERIVATIVES FOR USE IN THE TREATMENT OF DISEASES ASSOCIATED WITH CELL CYCLE DYSREGULATION” (University of Patras, priority 2016, dated 2017).

Columns and labels:
[1] = biological target: T1, Geminin-miniCdt1 protein interaction (Homo sapiens, UniProt O75496+Q9H211); test: Surface plasmon resonance (SPR): inhibition of Geminin binding to immobilized miniCdt1
T1 construct: corresponds to the amino acid region 158-396 of the human Cdtl protein; Concentrations series of the full-length Geminin and the synthetic chemical compound were simultaneously injected
T1 sequence (Q9H211 158-396): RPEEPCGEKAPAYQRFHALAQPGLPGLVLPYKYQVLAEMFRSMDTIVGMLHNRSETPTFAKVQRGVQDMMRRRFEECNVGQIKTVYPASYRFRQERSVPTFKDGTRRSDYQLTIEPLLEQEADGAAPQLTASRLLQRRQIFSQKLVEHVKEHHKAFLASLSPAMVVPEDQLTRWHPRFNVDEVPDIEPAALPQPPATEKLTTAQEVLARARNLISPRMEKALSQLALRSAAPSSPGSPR
T1 sequence (O75496 1-209): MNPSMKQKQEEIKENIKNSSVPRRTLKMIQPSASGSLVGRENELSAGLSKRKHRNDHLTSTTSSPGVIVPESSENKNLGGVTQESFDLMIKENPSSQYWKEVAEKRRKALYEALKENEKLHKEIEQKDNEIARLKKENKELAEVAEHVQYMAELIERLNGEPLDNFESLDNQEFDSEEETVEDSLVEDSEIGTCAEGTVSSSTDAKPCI
Procedure: Surface plasmon resonance analysis was performed in order to determine in a quantitative manner the ability of the synthetic compound AF-615/30368009 (compound number 1 in Tables A and B, and Fig. 1) to inhibit the binding of Geminin to the protein miniCdt1 (which corresponds to the amino acid region 158-396 of the human Cdtl protein), by calculating the inhibition constant (KI).
Surface plasmon resonance spectroscopy (SPR) was performed at 25°C, using a Biosensor Biacore instrument (Biacore T100). About 6,000 RU of miniCdt1 protein were immobilized on a CMS Chip (Biacore) at pH 5.5, using amino coupling of Lysine residues. Concentrations series of the full-length Geminin and the synthetic chemical compound were simultaneously injected across the chip in a buffer containing 20 mM Hepes pH 7.5, 200 mM NaCl, 0.01% Tween 20 at a flow rate of 30µl/min. The concentrations used were 12, 36, 107, 322, 966nM for Geminin and 10 µM, 100µM, 1000µM for the compound. The injection of samples was carried out in the presence of 20% DMSO, to ensure high solubility.
In the graphs of Fig. 2, the x axis represents the different concentrations of Geminin (nM), while the y-axis the binding levels in RU (Response Units). […] The results in Fig. 2 indicate the specificity of the in vitro inhibitory effect of the synthetic chemical compound AF-615/30368009 on the Geminin-miniCdt1 protein interaction.

[2] = test system: MCF7 cancer cells; test: Cell cycle progression by propidium iodide flow cytometry, cancer cells; type: cell-based; conditions: 100 µM, 23hrs
Procedure: (§1) Since the proteins Geminin and Cdtl are key regulators of the cell cycle, the effect of the synthetic compound on the development of the cancer cell and normal cell cycle was studied. Staining of the genetic material of the cells was performed with propidium iodide and the technique of flow cytometry was applied for their separation, based on the amount of genetic material.
(§2) MCF7 cells were used as cancer cells, whereas primary cells and particularly embryonic mouse fibroblasts (Mouse Embryonic Fibroblasts, MEFs) were used as normal cells. The cells were incubated with the synthetic chemical compound AF-615/30368009 at a concentration of 100 µM and cultured for 23hrs in 100-mm dishes, to 80% confluency. Cells which had been incubated with only DMSO were used as a negative control sample. The next day of the incubation, cells were harvested using trypsin. […] The experiments were conducted using a Becton Dickinson flow cytometer and the data were analyzed by the WinMDi software version 2.8.
(§3) The graphs shown in Fig. 5 are representative of at least two independent experiments. The x axis represents the intensity of the fluorescence of propidium iodide and proportionally the amount of DNA content of the cells, while the y-axis corresponds to the number of events for each phase of the cell cycle.

[3] = test system: Mouse Embryonic Fibroblasts, MEFs; test: Cell cycle progression by propidium iodide flow cytometry, normal (primary) cells; type: cell-based; conditions: 100 µM, 23hrs, compared to DMSO control (Fig. 5D vs 5C)
Procedure: as §1
as §2, with “2.8. […]” for “2.8.”
as §3

Compound: O=C(NNC(=S)N1CCOCC1)c1cnccn1 [AF-615/30368009, N'-(morpholine-4-carbothioyl)pyrazine-2-carbohydrazide]
- Ki ([1]; SPR at 25°C, Geminin 12-966nM, compound 10-1000µM, 20% DMSO, estimated value, read-out: inhibition constant (KI)): 750 ± 190 µM
- inhibition of Geminin binding to miniCdt1 ([1]; compound at 1000 µM, SPR binding curves (Fig. 2)): exhibits inhibition of Geminin binding to miniCdt1
- percentage (%) of cells in G0/G1 and S phases ([2]; MCF7, compared to DMSO control (Fig. 5B vs 5A)): significant increase
- population of cells corresponding to the G2/M phase of the cell cycle ([2]; MCF7, in comparison to DMSO control (Fig. 5B vs 5A)): extremely limited
- percentage of cells in G2/M phase [3]: mild reduction
- percentage of cells in phase G0/G1 and S [3]: no significant change
